The supplement of paper PMC10307832

Tests used:
Test in all cases: relative viability (nuclei count vs DMSO), 5 days (fraction); higher = more cells survive
[1] = compound: C[C@]1(c2nc3c(C(N)=O)cccc3[nH]2)CCCN1 [Veliparib] + CS(=O)(=O)CCNCc1ccc(-c2ccc3ncnc(Nc4ccc(OCc5cccc(F)c5)c(Cl)c4)c3c2)o1 [Lapatinib] (partner 2 µM)
How it was run: (§1)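 For relative viability, nuclei counts in treated wells were divided by those in vehicle wells. Lung cancer cell lines had been pin-tool dosed in 1536-well plates the day after seeding and cultured for 5 days, then fixed and stained in one step (final 0.05% Triton X-100, 1% formaldehyde, 1 ug/ml Hoechst) and imaged at 4×. Doses were one drug alone or a fixed anchor-drug dose plus five library-drug doses (not always all listed) in √10 steps, and values are duplicate-plate medians.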

[2] = compound: COC1=CC=C(C=C1)CN2C=CC3=C2C=C(C=C3)C(=O)NO + C[C@@H](Oc1cc(-c2cnn(C3CCNCC3)c2)cnc1N)c1c(Cl)ccc(F)c1Cl [Crizotinib] (partner 1 µM)
How it was run: as §1

[3] = compound: COC1=CC=C(C=C1)CN2C=CC3=C2C=C(C=C3)C(=O)NO + O=C(CCCCCCC(=O)Nc1ccccc1)NO [Vorinostat] (partner 1 µM)
How it was run: as §1

[4] = compound: COC1=CC=C(C=C1)CN2C=CC3=C2C=C(C=C3)C(=O)NO + CCNC(=O)c1noc(-c2cc(C(C)C)c(O)cc2O)c1-c1ccc(CN2CCOCC2)cc1 [Luminespib] (partner 0.01 µM)
How it was run: as §1

Q: Which relative viability ([1]; first compound 0.02 µM) does the source give for SW 1573 here?
A: 1.04

Q: And the relative viability ([1]; first compound 0.06325 µM)?
A: 1.02

Q: What about the relative viability ([1]; first compound 0.2 µM) of the same cell line?
A: 0.929

Q: And the relative viability ([1]; first compound 0.6325 µM)?
A: 1.05

Q: And the relative viability ([1]; first compound 2 µM)?
A: 1.04

Q: And the relative viability ([2]; first compound 0.253 µM)?
A: 0.908

Q: What about the relative viability ([2]; first compound 0.8 µM) of the same cell line?
A: 0.803

Q: And the relative viability ([2]; first compound 2.53 µM)?
A: 0.755

Q: What about the relative viability ([2]; first compound 8 µM) of the same cell line?
A: 0.587

Q: And the relative viability ([3]; first compound 0.253 µM)?
A: 0.76

Q: What about the relative viability ([3]; first compound 0.8 µM) of the same cell line?
A: 0.804

Q: What about the relative viability ([3]; first compound 2.53 µM) of the same cell line?
A: 0.818

Q: What about the relative viability ([3]; first compound 8 µM) of the same cell line?
A: 0.622

Q: And the relative viability ([4]; first compound 0.253 µM)?
A: 0.522

Q: What about the relative viability ([4]; first compound 0.8 µM) of the same cell line?
A: 0.279

Q: And the relative viability ([4]; first compound 2.53 µM)?
A: 0.298

Q: And the relative viability ([4]; first compound 8 µM)?
A: 0.491
